Experimental data taken from US4110328A, “Bis-carbamylguanidinoazaalkane antimicrobial compounds” (Cooper Laboratories, Inc., priority 1976, dated 1978).
Converted amounts (≈) assume the structure as drawn. “Also recorded” adds a separate entry of the source. Structures can show the parent of a compound that is named as a salt. One block for each molecule: values may come before it.

What was measured:
[1] = tested on: S. Mutans, Strain OMZ-176E; assay: Serial dilution minimum inhibitory concentration (MIC) test, S. mutans; type: cell-based; conditions: Streptococcus mutans, half strength brain-heart infusion broth, 37° C, 36 hours
Method: A quantitative serial dilution test may also be performed by the following procedure. A 20 mg/ml solution of the compound to be tested is prepared in a standard brain-heart infusion broth medium which has been diluted with water to one-half standard strength. Serial dilutions are prepared by adding 1 ml of the solution to a test tube containing 9 ml of medium. Five milliliters of the resulting solution are then added to another test tube containing 5 ml of the medium. The resulting solution is then again diluted by the same procedure. Ordinarily one tenfold dilution and four twofold dilutions are made. The procedure can be continued if more dilute solutions are required. Each of the series of tubes containing solutions of the compounds to be assayed is inoculated with two drops of a heavy culture of the chosen microorganisms in the brain-heart infusion broth. The tubes are incubated at 37° C for 36 hours and the most dilute solution showing no microbial growth is noted. The concentration of this solution is reported as the minimal inhibitory concentration (MIC). The minimum inhibitory concentration of a number of a number of compounds of this invention with respect to the microorganism S. Mutans, Strain OMZ-176E were determined by the procedure described above. Chlorhexidine diacetate, a commercially successful antimicrobial, was used as a control.

Ps. aeruginosa = assay: Serial dilution MIC test, Ps. aeruginosa; type: cell-based; conditions: Pseudomonas aeruginosa; trypticase soy broth, 37° C, 36 hours; read-out: MINIMUM INHIBITORY CONCN. Ps. aeruginosa
Method: (§1) A quantitative serial dilution test may also be performed by the following procedure.
(§2) A 20 mg/ml solution of the compound to be tested is prepared in a standard brain-heart infusion broth medium which has been diluted with water to one-half standard strength.
(§3) Serial dilutions are prepared by adding 1 ml of the solution to a test tube containing 9 ml of medium. Five milliliters of the resulting solution are then added to another test tube containing 5 ml of the medium. The resulting solution is then again diluted by the same procedure. Ordinarily one tenfold dilution and four twofold dilutions are made. The procedure can be continued if more dilute solutions are required. Each of the series of tubes containing solutions of the compounds to be assayed is inoculated with two drops of a heavy culture of the chosen microorganisms in the brain-heart infusion broth. The tubes are incubated at 37° C for 36 hours and the most dilute solution showing no microbial growth is noted. The concentration of this solution is reported as the minimal inhibitory concentration (MIC).
(§4) A number of compounds of this invention were tested for in vitro antimicrobial activity against several pathogenic microorganisms using the above described procedure except that trypticase soy broth was used in place of half strength brain-heart infusion as the medium.

S. aureus = assay: Serial dilution MIC test, S. aureus; type: cell-based; conditions: Staphylococcus aureus, read-out: MINIMUM […]. S. aureus; trypticase soy broth, 37° C, 36 hours; read-out: MINIMUM INHIBITORY CONCN. S. aureus
Method: as §1, §2, §3, §4

E. coli = assay: Serial dilution MIC test, E. coli; type: cell-based; conditions: Escherichia coli, read-out: MINIMUM […]. E. coli; trypticase soy broth, 37° C, 36 hours; read-out: MINIMUM INHIBITORY CONCN. E. coli
Method: as §1, §2, §3, §4

C. albicans = assay: Serial dilution MIC test, C. albicans; type: cell-based; conditions: Candida albicans; trypticase soy broth, 37° C, 36 hours; read-out: MINIMUM INHIBITORY CONCN. C. albicans
Method: as §1, §2, §3, §4

A. niger = assay: Serial dilution MIC test, A. niger; type: cell-based; conditions: Aspergillus niger; trypticase soy broth, 37° C, 36 hours; read-out: MINIMUM INHIBITORY CONCN. A. niger
Method: as §1, §2, §3, §4

[2] = cited from earlier work; for taste perception of foodstuffs: for several hours; for clinical antiplaque effectiveness: in vivo; for local irritation: oral mucosa and tongue; for staining of teeth, tongue, gums, oral mucosa: prolonged use
[3] = Staining of extracted human incisors in vitro; conditions: ten days; for discoloration of teeth: 0.2% and 1% solutions, 10 minutes daily, saliva at 37° C
Method: The staining properties of the compound of Example II were compared with those of chlorhexidine by the following procedure. Test solutions were prepared containing 0.2% and 1% of chlorhexidine and 0.2% and 1% of the compound of Example II as the trimethanesulfonate salt. Extracted human incisors, which were used without cleaning or other treatment which would remove the dental pellicle, were suspended from wires. Daily, each tooth was immersed for 10 minutes in one of the test solutions, then suspended in whole stimulated saliva and incubated at 37° C for 24 hours.

MIC [1]: 0.625 µg/mL (≈ 1.17 µM)
SMILES: CN(CCCNC(=N)NC(=O)Nc1ccc(Cl)cc1)CCCNC(=N)NC(=O)Nc1ccc(Cl)cc1 [1,7-bis(4-chlorophenylcarbamylguanidine)-4-methyl-4-azaheptane]

MIC [1]: 1.25 µg/mL (≈ 2.21 µM)
SMILES: CN(CCNC(=N)NC(=O)Nc1ccc(Cl)cc1)CCN(C)CCNC(=N)NC(=O)Nc1ccc(Cl)cc1 [1,8-bis(4-chlorophenylcarbamylguanidino)-3,6-dimethyl-3,6-diazaoctane]

MIC [1]: 2.5 µg/mL
SMILES: CCCCCCCCNC(=O)NC(=N)NCCCN1CCN(CCCNC(=N)NC(=O)NCCCCCCCC)CC1 [1,4-bis[3-(n-octylcarbamylguanidino)propyl]piperazine dihydrochloride]

MIC [1]: 5 µg/mL
SMILES: CCCCC(CC)CNC(=O)NC(=N)NCCCN1CCN(CCCNC(=N)NC(=O)NCC(CC)CCCC)CC1 (stereo not shown) [1,4-bis[3-(2-ethylhexylcarbamylguanidino)propyl]piperazine dihydrochloride]

SMILES: N=C(NCCN1CCN(CCNC(=N)NC(=O)NC23CC4CC(CC(C4)C2)C3)CC1)NC(=O)NC12CC3CC(CC(C3)C1)C2 [1,4-bis[2-((1-adamantyl)carbamylguanidino)ethyl]piperazine dimethanesulfonic acid salt]
MIC (Ps. aeruginosa): 6.25 µg/mL
MIC (S. aureus): 0.39 µg/mL
MIC (E. coli): 12.5 µg/mL
MIC (C. albicans): 0.78 µg/mL
MIC (A. niger): 50 µg/mL

SMILES: N=C(NCCCN1CCN(CCCNC(=N)NC(=O)NCC2CCCCCC2)CC1)NC(=O)NCC1CCCCCC1 [1,4-bis[3-(cycloheptylmethylcarbamylguanidino)propyl]piperazine dimethanesulfonic acid salt]
MIC (Ps. aeruginosa): 12.5 µg/mL
MIC (S. aureus): 0.78 µg/mL
MIC (E. coli): 12.5 µg/mL
MIC (C. albicans): 0.78 µg/mL
MIC (A. niger): 50 µg/mL

SMILES: N=C(NCCCN1CCN(CCCNC(=N)NC(=O)NCC2CCCCC2)CC1)NC(=O)NCC1CCCCC1 [1,4-bis[3-(cyclohexylmethylcarbamylguanidino)propyl]piperazine dimethanesulfonic acid salt]
MIC (Ps. aeruginosa): 100 µg/mL
MIC (S. aureus): 0.78 µg/mL
MIC (E. coli): 6.25 µg/mL
MIC (C. albicans): 6.25 µg/mL
MIC (A. niger): 12.5 µg/mL

MIC [1]: 1.25 µg/mL
SMILES: N=C(NCCCN1CCN(CCCNC(=N)NC(=O)NCCc2ccc(Cl)cc2)CC1)NC(=O)NCCc1ccc(Cl)cc1 [1,4-bis[3-(2-(4-chlorophenyl)ethylcarbamylguanidino)propyl]piperazine dihydrochloride]

MIC [1]: 1.25 µg/mL
SMILES: CC(C)(C)CC(C)(C)NC(=O)NC(=N)NCCCN1CCN(CCCNC(=N)NC(=O)NC(C)(C)CC(C)(C)C)CC1 [1,4-bis[3-(1,1,3,3-tetramethylbutylcarbamylguanidino)propyl]piperazine dihydrochloride]

SMILES: N=C(NCCCN1CCN(CCCNC(=N)NC(=O)NC23CC4CC(CC(C4)C2)C3)CC1)NC(=O)NC12CC3CC(CC(C3)C1)C2 [1,4-bis[3-((1-adamantyl)carbamylguanidino)propyl]piperazine dimethanesulfonic acid salt]
MIC (Ps. aeruginosa): 50 µg/mL
MIC (S. aureus): 6.25 µg/mL
MIC (E. coli): 25 µg/mL
MIC (C. albicans): 12.5 µg/mL
MIC (A. niger): 12.5 µg/mL

SMILES: CCCCCC(C)NC(=O)NC(=N)NCCCN1CCN(CCCNC(=N)NC(=O)NC(C)CCCCC)CC1 (stereo not shown) [1,4-bis[3-(1-methylhexyl)carbamylguanidino)propyl]piperazine dihydrochloride]
MIC (Ps. aeruginosa): 25 µg/mL
MIC (S. aureus): 1.56 µg/mL
MIC (E. coli): 12.5 µg/mL
MIC (C. albicans): 6.25 µg/mL
MIC (A. niger): 25 µg/mL

SMILES: CCCCC(CC)CNC(=N)NC(=N)NCCCCCCNC(=N)NC(=N)NCC(CC)CCCC (stereo not shown) [alexidine, 1,6-bis-(2-ethylhexylbiguanidino)hexane]
taste perception of foodstuffs [2]: alter taste perception of foodstuffs for several hours
clinical antiplaque effectiveness [2]: clinically effective antiplaque agents
local irritation [2]: produce local irritation of the oral mucosa and tongue
staining of teeth, tongue, gums, oral mucosa [2]: produce stains of various colors on the teeth, tongue, gums, oral mucosa

MIC [1]: 0.156 to 0.312 µg/mL
SMILES: N=C(NCCCCCCNC(=N)NC(=N)Nc1ccc(Cl)cc1)NC(=N)Nc1ccc(Cl)cc1 [chlorhexidine diacetate, reference compound]

discoloration of teeth [3]: no signs of discoloration
MIC [1]: 0.156 to 0.312 µg/mL (≈ 0.264 to 0.527 µM)
SMILES: N=C(NCCCN1CCN(CCCNC(=N)NC(=O)Nc2ccc(Cl)cc2)CC1)NC(=O)Nc1ccc(Cl)cc1 [Example II]

SMILES: [H]/N=C(\N/C(=N/[H])NCCCCCCNC(=N)NC(=N)Nc1ccc(Cl)cc1)Nc1ccc(Cl)cc1 [chlorhexidine, 1,6-bis-(p-chlorophenylbiguanidino)hexane]
MIC (Ps. aeruginosa): 50 µg/mL (≈ 98.9 µM)
MIC (S. aureus): 0.39 µg/mL (≈ 0.772 µM)
MIC (E. coli): 1.56 µg/mL (≈ 3.09 µM)
MIC (C. albicans): 3.12 µg/mL (≈ 6.17 µM)
taste perception of foodstuffs [2]: alter taste perception of foodstuffs for several hours
clinical antiplaque effectiveness [2]: clinically effective antiplaque agents
local irritation [2]: produce local irritation of the oral mucosa and tongue
staining of teeth, tongue, gums, oral mucosa [2]: produce stains of various colors on the teeth, tongue, gums, oral mucosa; also recorded: staining of the teeth, tongue, and gums
discoloration of teeth [3]: greyish-brown discoloration
dependence of amount of discoloration on concentration ([3]; 0.2% versus 1%): independent of the concentration
MIC (A. niger): 12.5 µg/mL (≈ 24.7 µM)

SMILES: N=C(NCCCN1CCN(CCCNC(=N)NC(=O)NC2CCCCC2)CC1)NC(=O)NC1CCCCC1 [1,4-bis[3-(cyclohexylcarbamylguanidino)propyl]piperazine dimethanesulfonic acid salt]
MIC (Ps. aeruginosa): 100 µg/mL
MIC (S. aureus): 50 µg/mL
MIC (E. coli): 100 µg/mL
MIC (C. albicans): 50 µg/mL
MIC (A. niger): 100 µg/mL

SMILES: Cl.Cl.N=C(NCCCN1CCN(CCCNC(=N)NC(=O)NCC2CCCCC2)CC1)NC(=O)NCC1CCCCC1 [1,4-bis[(3-cyclohexylmethylcarbamylguanidino)propyl]piperazine dihydrochloride]
MIC [1]: 1.25 µg/mL
